# Tests used:
# DU-145 = assay: Growth inhibition of human DU-145 cells at 10 uM relative to control; format: functional; conditions: read-out: GI
# SF-268 = assay: Growth inhibition of human SF-268 cells at 10 uM relative to control; format: functional; conditions: read-out: GI
# NCI-H460 = assay: Growth inhibition of human NCI-H460 cells at 10 uM relative to control; format: functional; conditions: read-out: GI
# COLO 205 = assay: Growth inhibition of human COLO 205 cells at 10 uM relative to control; format: functional; conditions: read-out: GI
# UO-31 = assay: Growth inhibition of human UO-31 cells at 10 uM relative to control; format: functional; conditions: read-out: GI
# SK-MEL-2 = assay: Growth inhibition of human SK-MEL-2 cells at 10 uM relative to control; format: functional; conditions: read-out: GI
# SNB-75 = assay: Growth inhibition of human SNB-75 cells at 10 uM relative to control; format: functional; conditions: read-out: GI
# A549 = assay: Growth inhibition of human A549 cells at 10 uM relative to control; format: functional; conditions: read-out: GI
# DNA = assay: Displacement of methyl green from DNA (unknown origin) assessed as DNA intercalation after 24 hrs by colorimetric assay; format: nucleic-acid assay
# SF-295 = assay: Growth inhibition of human SF-295 cells at 10 uM relative to control; format: functional; conditions: read-out: GI
# ACHN = assay: Growth inhibition of human ACHN cells at 10 uM relative to control; format: functional; conditions: read-out: GI
# SK-OV-3 = assay: Growth inhibition of human SK-OV-3 cells at 10 uM relative to control; format: functional; conditions: read-out: GI
# SR = assay: Growth inhibition of human SR cells at 10 uM relative to control; format: functional; conditions: read-out: GI
# OVCAR-4 = assay: Growth inhibition of human OVCAR-4 cells at 10 uM relative to control; format: functional; conditions: read-out: GI
# K562 = assay: Growth inhibition of human K562 cells at 10 uM relative to control; format: functional; conditions: read-out: GI
# KM12 = assay: Growth inhibition of human KM12 cells at 10 uM relative to control; format: functional; conditions: read-out: GI
# SK-MEL-28 = assay: Growth inhibition of human SK-MEL-28 cells at 10 uM relative to control; format: functional; conditions: read-out: GI
# 786-0 = assay: Growth inhibition of human 786-0 cells at 10 uM relative to control; format: functional; conditions: read-out: GI
# UACC-257 = assay: Growth inhibition of human UACC-257 cells at 10 uM relative to control; format: functional; conditions: read-out: GI
# MDA-MB-231 = assay: Growth inhibition of human MDA-MB-231 cells at 10 uM relative to control; format: functional; conditions: read-out: GI
# Hs-578T = assay: Growth inhibition of human Hs-578T cells at 10 uM relative to control; format: functional; conditions: read-out: GI
# RPMI-8226 = assay: Growth inhibition of human RPMI-8226 cells at 10 uM relative to control; format: functional; conditions: read-out: GI
# HCC 2998 = assay: Growth inhibition of human HCC 2998 cells at 10 uM relative to control; format: functional; conditions: read-out: GI
# NCI-H23 = assay: Growth inhibition of human NCI-H23 cells at 10 uM relative to control; format: functional; conditions: read-out: GI
# MOLT-4 = assay: Growth inhibition of human MOLT-4 cells at 10 uM relative to control; format: functional; conditions: read-out: GI
# HL-60(TB) = assay: Growth inhibition of human HL-60(TB) cells at 10 uM relative to control; format: functional; conditions: read-out: GI
# HCT-116 = assay: Growth inhibition of human HCT-116 cells at 10 uM relative to control; format: functional; conditions: read-out: GI
# SK-MEL-5 = assay: Growth inhibition of human SK-MEL-5 cells at 10 uM relative to control; format: functional; conditions: read-out: GI
# MDA-MB-435 = assay: Growth inhibition of human MDA-MB-435 cells at 10 uM relative to control; format: functional; conditions: read-out: GI
# RXF 393 = assay: Growth inhibition of human RXF 393 cells at 10 uM relative to control; format: functional; conditions: read-out: GI
# NCI-H226 = assay: Growth inhibition of human NCI-H226 cells at 10 uM relative to control; format: functional; conditions: read-out: GI
# HOP-92 = assay: Growth inhibition of human HOP-92 cells at 10 uM relative to control; format: functional; conditions: read-out: GI
# BT-549 = assay: Growth inhibition of human BT-549 cells at 10 uM relative to control; format: functional; conditions: read-out: GI
# HT-29 = assay: Growth inhibition of human HT-29 cells at 10 uM relative to control; format: functional; conditions: read-out: GI
# LOX IMVI = assay: Growth inhibition of human LOX IMVI cells at 10 uM relative to control; format: functional; conditions: read-out: GI
# SF-539 = assay: Growth inhibition of human SF-539 cells at 10 uM relative to control; format: functional; conditions: read-out: GI
# MCF7 = assay: Growth inhibition of human MCF7 cells at 10 uM relative to control; format: functional; conditions: read-out: GI
# HOP-62 = assay: Growth inhibition of human HOP-62 cells at 10 uM relative to control; format: functional; conditions: read-out: GI
# IGROV-1 = assay: Growth inhibition of human IGROV-1 cells at 10 uM relative to control; format: functional; conditions: read-out: GI
# T47D = assay: Growth inhibition of human T47D cells at 10 uM relative to control; format: functional; conditions: read-out: GI
# OVCAR-8 = assay: Growth inhibition of human OVCAR-8 cells at 10 uM relative to control; format: functional; conditions: read-out: GI
# NCI/ADR-RES = assay: Growth inhibition of human NCI/ADR-RES cells at 10 uM relative to control; format: functional; conditions: read-out: GI
# CAKI-1 = assay: Growth inhibition of human CAKI-1 cells at 10 uM relative to control; format: functional; conditions: read-out: GI
# U-251 = assay: Growth inhibition of human U-251 cells at 10 uM relative to control; format: functional; conditions: read-out: GI
# Malme-3M = assay: Growth inhibition of human Malme-3M cells at 10 uM relative to control; format: functional; conditions: read-out: GI
# SW-620 = assay: Growth inhibition of human SW-620 cells at 10 uM relative to control; format: functional; conditions: read-out: GI
# SN12C = assay: Growth inhibition of human SN12C cells at 10 uM relative to control; format: functional; conditions: read-out: GI
# MDA-MB-468 = assay: Growth inhibition of human MDA-MB-468 cells at 10 uM relative to control; format: functional; conditions: read-out: GI
# CCRF-CEM = assay: Growth inhibition of human CCRF-CEM cells at 10 uM relative to control; format: functional; conditions: read-out: GI
# M14 = assay: Growth inhibition of human M14 cells at 10 uM relative to control; format: functional; conditions: read-out: GI
# NCI-H322M = assay: Growth inhibition of human NCI-H322M cells at 10 uM relative to control; format: functional; conditions: read-out: GI
# OVCAR-5 = assay: Growth inhibition of human OVCAR-5 cells at 10 uM relative to control; format: functional; conditions: read-out: GI
# HCT-15 = assay: Growth inhibition of human HCT-15 cells at 10 uM relative to control; format: functional; conditions: read-out: GI
# UACC-62 = assay: Growth inhibition of human UACC-62 cells at 10 uM relative to control; format: functional; conditions: read-out: GI
# PC-3 = assay: Growth inhibition of human PC-3 cells at 10 uM relative to control; format: functional; conditions: read-out: GI
# TK-10 = assay: Growth inhibition of human TK-10 cells at 10 uM relative to control; format: functional; conditions: read-out: GI
# A498 = assay: Growth inhibition of human A498 cells at 10 uM relative to control; format: functional; conditions: read-out: GI
# SNB-19 = assay: Growth inhibition of human SNB-19 cells at 10 uM relative to control; format: functional; conditions: read-out: GI
# NCI-H522 = assay: Growth inhibition of human NCI-H522 cells at 10 uM relative to control; format: functional; conditions: read-out: GI
smiles,measurement,setting,value
CC1=CSC2=NC(/C=C/c3cccs3)=CC(c3cccs3)N12 (centres undefined),inhibition of growth at 10 µM,DU-145,< 10%
same,inhibition of growth at 10 µM,SF-268,< 10%
same,inhibition of growth at 10 µM,NCI-H460,< 10%
same,inhibition of growth at 10 µM,COLO 205,< 10%
same,inhibition of growth at 10 µM,UO-31,< 10%
same,inhibition of growth at 10 µM,SK-MEL-2,< 10%
same,inhibition of growth at 10 µM,SNB-75,< 10%
same,inhibition of growth at 10 µM,A549,< 10%
same,IC50,DNA,39.82 µg/mL
same,inhibition of growth at 10 µM,SF-295,< 10%
same,inhibition of growth at 10 µM,ACHN,< 10%
same,inhibition of growth at 10 µM,SK-OV-3,< 10%
same,inhibition of growth at 10 µM,SR,< 10%
same,inhibition of growth at 10 µM,OVCAR-4,< 10%
same,inhibition of growth at 10 µM,K562,< 10%
same,inhibition of growth at 10 µM,KM12,< 10%
same,inhibition of growth at 10 µM,SK-MEL-28,< 10%
same,inhibition of growth at 10 µM,786-0,< 10%
same,inhibition of growth at 10 µM,UACC-257,< 10%
same,inhibition of growth at 10 µM,MDA-MB-231,< 10%
same,inhibition of growth at 10 µM,Hs-578T,< 10%
same,inhibition of growth at 10 µM,RPMI-8226,< 10%
same,inhibition of growth at 10 µM,HCC 2998,< 10%
same,inhibition of growth at 10 µM,NCI-H23,< 10%
same,inhibition of growth at 10 µM,MOLT-4,< 10%
same,inhibition of growth at 10 µM,HL-60(TB),< 10%
same,inhibition of growth at 10 µM,HCT-116,< 10%
same,inhibition of growth at 10 µM,SK-MEL-5,< 10%
same,inhibition of growth at 10 µM,MDA-MB-435,< 10%
same,inhibition of growth at 10 µM,RXF 393,< 10%
same,inhibition of growth at 10 µM,NCI-H226,< 10%
same,inhibition of growth at 10 µM,HOP-92,< 10%
same,inhibition of growth at 10 µM,BT-549,< 10%
same,inhibition of growth at 10 µM,HT-29,< 10%
same,inhibition of growth at 10 µM,LOX IMVI,< 10%
same,inhibition of growth at 10 µM,SF-539,< 10%
same,inhibition of growth at 10 µM,MCF7,< 10%
same,inhibition of growth at 10 µM,HOP-62,< 10%
same,inhibition of growth at 10 µM,IGROV-1,< 10%
same,inhibition of growth at 10 µM,T47D,< 10%
same,inhibition of growth at 10 µM,OVCAR-8,< 10%
same,inhibition of growth at 10 µM,NCI/ADR-RES,< 10%
same,inhibition of growth at 10 µM,CAKI-1,< 10%
same,inhibition of growth at 10 µM,U-251,< 10%
same,inhibition of growth at 10 µM,Malme-3M,< 10%
same,inhibition of growth at 10 µM,SW-620,< 10%
same,inhibition of growth at 10 µM,SN12C,< 10%
same,inhibition of growth at 10 µM,MDA-MB-468,< 10%
same,inhibition of growth at 10 µM,CCRF-CEM,< 10%
same,inhibition of growth at 10 µM,M14,< 10%
same,inhibition of growth at 10 µM,NCI-H322M,< 10%
same,inhibition of growth at 10 µM,OVCAR-5,< 10%
same,inhibition of growth at 10 µM,HCT-15,< 10%
same,inhibition of growth at 10 µM,UACC-62,< 10%
same,inhibition of growth at 10 µM,PC-3,< 10%
same,inhibition of growth at 10 µM,TK-10,< 10%
same,inhibition of growth at 10 µM,A498,< 10%
same,inhibition of growth at 10 µM,SNB-19,< 10%
same,inhibition of growth at 10 µM,NCI-H522,13.3%
